Experimental data as given in US20220202799A1, “PHARMACEUTICAL FORMULATIONS CONTAINING P2Y14 ANTAGONISTS” (priority 2019, published 2022).
Read-outs that look alike come from different tables or passages of the source.

What was measured:
[1] = Stability of PPTN/SBECD solution on dilution into saline; assay type: physicochemical; conditions: 9 mg/mL PPTN
Protocol: The stability of PPTN in SBECD-containing solutions was analyzed at various concentrations of PPTN. A solution containing 9 mg/mL PPTN and 12% SBECD, as described above, was diluted into saline as described in Table 13.

[2] = Loss of PPTN due to adherence to surfaces of vessels; assay type: physicochemical; conditions: 200 ng/ml PPTN, no solubilizing agent, 24 hours
Protocol: The loss of PPTN due to adherence to surfaces of vessels was analyzed. PPTN is a hydrophobic compound that may adhere to plastics and other surfaces. To test how much PPTN is lost due to surface adhesion, an aqueous solution containing 200 ng/ml PPTN and less than 0.1% acetonitrile was incubated in the absence of solubilizing agent in various vessels for 24 hours. […]

[3] = Plasma concentrations during 24-hour continuous intravenous infusion; assay type: in vivo, Sprague-Dawley rats; conditions: for Female/Male C24h Ratio: 24-hour intravenous infusion; for concentration at 1 h / concentration at 2 h / concentration at 4 h / concentration at 6 h / concentration at 8 h / concentration at 24 h: Sprague-Dawley, rat, plasma, iv
Protocol: The safety and pharmacokinetics of PPTN (KB-1801) in rats receiving continuous intravenous injections of SBECD-containing solutions were analyzed. Three cohorts of six male and six female rats each were given continuous intravenous infusion of PPTN (KB-1801) at 10 mg/kg/day, 30 mg/kg/day or 100 mg/kg/day in a dosing solution containing PPTN at 0.25 mg/mL, 0.75 mg/mL or 2.5 mg/mL and SBECD at about 3.8%. Dosing volume was 40 mIkg/day. [table]

[4] = Urine PPTN concentration after single bolus intravenous injection; assay type: in vivo; conditions: male rats; single bolus intravenous injection 0.85, 2.9 or 8.5 mg/kg
Protocol: The pharmacokinetics of PPTN (KB-1801) in male rats receiving single bolus intravenous injections of SBECD-containing solutions were analyzed. Three cohorts of four rats each were given a single dose of PPTN (KB-1801) at 0.85 mg/kg, 2.9 mg/kg, or 8.5 mg/kg in 1 mL dosing volume.

[5] = Solubility of PPTN in SBECD-containing saline solutions; assay type: physicochemical; conditions: 9 mg/mL PPTN (HCl salt) in 12% SBECD/saline; room temperature for 28 days
Protocol: Sulfobutylether-β-cyclodextrin (SBECD) was tested for the ability to increase the solubility of PPTN in aqueous media.
A stock solution containing 12% SBECD was prepared as follows: 9 mL of saline was added to 1.21 g of SBECD in a 10 mL flask, and the mixture was sonicated for 5 minutes. Saline was then added to achieve a final volume of 10 mL. The pH of the final solution was about 7.
The solubility of PPTN in solutions containing various concentrations of SBECD was analyzed. Excess PPTN was added to saline solutions containing various concentrations of SBECD, insoluble material was removed by filtration, and the PPTN concentration in the filtered solution was analyzed.
A solution containing 9 mg/mL PPTN was prepared as follows. 4.7 mL of 12% SBECD solution, prepared as described above, was added to a 5 mL flask containing 45 mg PPTN (HCl salt), and the mixture was sonicated with heat for 50 minutes. After sonication, 12% SBECD solution to achieve a final volume of 5 mL. The warm solution appeared clear. The solution was allowed to cool to room temperature and was incubated at room temperature for 28 days.

[6] = Loss of PPTN due to adherence to surfaces of vessels; assay type: physicochemical; conditions: 200 ng/ml PPTN, no solubilizing agent; Control 48 h, glass scintillation vial
[7] = female, 10 mg/kg, female Sprague-Dawley rats, 24-hour intravenous infusion at 10 mg/kg, read-out: Plasma concentration, Mean
[8] = female, 10 mg/kg, female Sprague-Dawley rats, 24-hour intravenous infusion at 10 mg/kg, read-out: Plasma concentration, individual animal
[9] = female, 30 mg/kg, female Sprague-Dawley rats, 24-hour intravenous infusion at 30 mg/kg, read-out: Plasma concentration, Mean
[10] = female, 30 mg/kg, female Sprague-Dawley rats, 24-hour intravenous infusion at 30 mg/kg, read-out: Plasma concentration, individual animal
[11] = female, 100 mg/kg, female Sprague-Dawley rats, 24-hour intravenous infusion at 100 mg/kg, read-out: Plasma concentration, Mean
[12] = female, 100 mg/kg, female Sprague-Dawley rats, 24-hour intravenous infusion at 100 mg/kg, read-out: Plasma concentration, individual animal
[13] = male, 10 mg/kg, male Sprague-Dawley rats, 24-hour intravenous infusion at 10 mg/kg, read-out: Plasma concentration, Mean
[14] = male, 10 mg/kg, male Sprague-Dawley rats, 24-hour intravenous infusion at 10 mg/kg, read-out: Plasma concentration, individual animal
[15] = male, 30 mg/kg, male Sprague-Dawley rats, 24-hour intravenous infusion at 30 mg/kg, read-out: Plasma concentration, Mean
[16] = male, 30 mg/kg, male Sprague-Dawley rats, 24-hour intravenous infusion at 30 mg/kg, read-out: Plasma concentration, individual animal
[17] = male, 100 mg/kg, male Sprague-Dawley rats, 24-hour intravenous infusion at 100 mg/kg, read-out: Plasma concentration, Mean
[18] = male, 100 mg/kg, male Sprague-Dawley rats, 24-hour intravenous infusion at 100 mg/kg, read-out: Plasma concentration, individual animal

O=C(O)c1cc(-c2ccc(C3CCNCC3)cc2)c2ccc(-c3ccc(C(F)(F)F)cc3)cc2c1 [KB-1801, 4-[4-(piperidin-4-yl)phenyl]-7-[4-(trifluoromethyl)phenyl]-2-naphthoic acid]
Result (appearance after dilution) ([1]; 12% SBECD stock diluted 3x with saline): Clear solution
Result (appearance after dilution) ([1]; 12% SBECD stock diluted 10x with saline): Clear solution
Result (appearance after dilution) ([1]; 12% SBECD stock diluted 50x with saline): Clear solution
% recovery vs. control ([2]; Corning pipette tip): 22%
% recovery vs. standard ([2]; Corning pipette tip): 6%
% recovery vs. control ([2]; Eppendorf clear conical tube): 19%
% recovery vs. standard ([2]; Eppendorf clear conical tube): 5%
% recovery vs. control ([2]; Eppendorf orange conical tube): 25%
% recovery vs. standard ([2]; Eppendorf orange conical tube): 6%
% recovery vs. control ([2]; Versilon SE200 Tygon tubing): 8%
% recovery vs. standard ([2]; Versilon SE200 Tygon tubing): 2%
% recovery vs. control ([2]; polyetheretherketone tubing): 22%
% recovery vs. standard ([2]; polyetheretherketone tubing): 6%
Female/Male C24h Ratio ([3]; Group 6, 10 mg/kg): 1.36
Female/Male C24h Ratio ([3]; Group 7, 30 mg/kg): 0.88
Female/Male C24h Ratio ([3]; Group 8, 100 mg/kg): 0.93
concentration at 1 h [3, 7]: 216 ng/mL
concentration at 2 h [3, 7]: 281 ng/mL
concentration at 2 h [3, 8]: 383 ng/mL
concentration at 4 h [3, 7]: 426 ng/mL
concentration at 4 h [3, 8]: 445 ng/mL
concentration at 6 h [3, 7]: 569 ng/mL
concentration at 6 h [3, 8]: 726 ng/mL
concentration at 8 h [3, 7]: 526 ng/mL
concentration at 8 h [3, 8]: 678 ng/mL
concentration at 24 h [3, 7]: 954 ng/mL
concentration at 24 h [3, 8]: 753 ng/mL
concentration at 1 h [3, 9]: 641 ng/mL
concentration at 1 h [3, 10]: 603 ng/mL
concentration at 2 h [3, 9]: 1430 ng/mL
concentration at 2 h [3, 10]: 1950 ng/mL
concentration at 4 h [3, 9]: 1530 ng/mL
concentration at 4 h [3, 10]: 1250 ng/mL
concentration at 6 h [3, 9]: 1640 ng/mL
concentration at 6 h [3, 10]: 1390 ng/mL
concentration at 8 h [3, 9]: 1730 ng/mL
concentration at 8 h [3, 10]: 1740 ng/mL
concentration at 24 h [3, 9]: 2500 ng/mL
concentration at 1 h [3, 11]: 2040 ng/mL
concentration at 1 h [3, 12]: 2630 ng/mL
concentration at 2 h [3, 11]: 2310 ng/mL
concentration at 4 h [3, 11]: 5210 ng/mL
concentration at 4 h [3, 12]: 4540 ng/mL
concentration at 6 h [3, 11]: 4300 ng/mL
concentration at 6 h [3, 12]: 3550 ng/mL
concentration at 8 h [3, 11]: 5660 ng/mL
concentration at 8 h [3, 12]: 6390 ng/mL
concentration at 24 h [3, 11]: 8150 ng/mL
concentration at 24 h [3, 12]: 5590 ng/mL
concentration at 1 h [3, 13]: 216 ng/mL
concentration at 1 h [3, 14]: 216 ng/mL
concentration at 2 h [3, 13]: 276 ng/mL
concentration at 2 h [3, 14]: 327 ng/mL
concentration at 4 h [3, 13]: 378 ng/mL
concentration at 6 h [3, 13]: 417 ng/mL
concentration at 6 h [3, 14]: 508 ng/mL
concentration at 8 h [3, 13]: 416 ng/mL
concentration at 8 h [3, 14]: 430 ng/mL
concentration at 24 h [3, 13]: 703 ng/mL
concentration at 1 h [3, 15]: 1020 ng/mL
concentration at 2 h [3, 15]: 1100 ng/mL
concentration at 4 h [3, 15]: 1320 ng/mL
concentration at 4 h [3, 16]: 1460 ng/mL
concentration at 6 h [3, 15]: 1470 ng/mL
concentration at 6 h [3, 16]: 1170 ng/mL
concentration at 8 h [3, 15]: 1500 ng/mL
concentration at 8 h [3, 16]: 1450 ng/mL
concentration at 24 h [3, 15]: 2830 ng/mL
concentration at 24 h [3, 16]: 2880 ng/mL
concentration at 1 h [3, 17]: 2120 ng/mL
concentration at 1 h [3, 18]: 1530 ng/mL
concentration at 2 h [3, 17]: 2760 ng/mL
concentration at 4 h [3, 17]: 3940 ng/mL
concentration at 4 h [3, 18]: 3560 ng/mL
concentration at 6 h [3, 17]: 6660 ng/mL
concentration at 8 h [3, 17]: 5770 ng/mL
concentration at 8 h [3, 18]: 6520 ng/mL
concentration at 24 h [3, 17]: 8740 ng/mL
concentration at 24 h [3, 18]: 10700 ng/mL
Urine concentration compared with plasma [4]: in excess of plasma concentrations
Solution appearance [5]: remained clear throughout the entire incubation
% recovery vs. standard [6]: 26%
